{"source": "paper PMC6934184", "about": "“Selective DNA-PKcs inhibition extends the therapeutic index of localized radiotherapy and chemotherapy” (The Journal of Clinical Investigation, 2019)", "biological_target": "T1, NTRK3 (TRKC) (Homo sapiens, UniProt Q16288)", "T1 construct": "purchased Thermo Fisher Scientific (Life Technologies) SelectScreen", "T1 sequence (Q16288 32-839)": "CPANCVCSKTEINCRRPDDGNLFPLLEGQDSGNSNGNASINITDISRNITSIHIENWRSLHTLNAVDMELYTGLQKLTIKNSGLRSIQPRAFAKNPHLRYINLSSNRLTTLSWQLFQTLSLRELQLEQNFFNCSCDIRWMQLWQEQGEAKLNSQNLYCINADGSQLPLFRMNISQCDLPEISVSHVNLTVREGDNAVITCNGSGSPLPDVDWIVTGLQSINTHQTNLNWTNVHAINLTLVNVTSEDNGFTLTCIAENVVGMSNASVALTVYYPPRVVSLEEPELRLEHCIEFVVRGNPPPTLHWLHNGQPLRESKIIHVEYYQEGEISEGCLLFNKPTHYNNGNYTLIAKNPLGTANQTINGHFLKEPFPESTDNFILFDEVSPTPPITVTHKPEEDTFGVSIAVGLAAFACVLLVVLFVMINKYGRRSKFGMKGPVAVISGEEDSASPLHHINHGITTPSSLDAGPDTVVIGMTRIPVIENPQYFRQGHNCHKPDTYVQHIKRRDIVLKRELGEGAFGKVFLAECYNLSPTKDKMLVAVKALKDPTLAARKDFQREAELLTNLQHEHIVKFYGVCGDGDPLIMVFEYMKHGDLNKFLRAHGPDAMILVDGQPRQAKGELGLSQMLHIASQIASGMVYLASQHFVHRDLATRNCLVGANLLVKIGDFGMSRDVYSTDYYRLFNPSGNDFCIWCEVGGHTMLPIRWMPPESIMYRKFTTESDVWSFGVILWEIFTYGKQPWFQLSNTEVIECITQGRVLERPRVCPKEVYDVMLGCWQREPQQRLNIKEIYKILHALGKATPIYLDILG", "experiment": "SelectScreen Z'LYTE", "assay_type": "biochemical", "method_in_brief": "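NU5455 was profiled across the SelectScreen Broad panel of kinase activity and binding assays. Z'LYTE reactions such as CSF1R ran at apparent Km ATP, while the Adapta CAMK1 assay used ATP listed as 10. Values are given as percent.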"}
{"molecule": "CN(C(=O)CN1CCOCC1)c1ccc2sc3c(-c4cccc5c(=O)cc(N6CC7CCC(C6)O7)oc45)cccc3c2c1", "note": "[NU5455]", "values": [{"measurement": "inhibition at 1 µM", "result": 0.4, "unit": "%"}]}
